{
  "source": "patent US20260226101A1",
  "about": "“PEPTIDE WITH ANTI-INFLAMMATORY AND ANTI-MICROBIAL ACTIVITY” (priority 2023, published 2026)",
  "key": {"[1]": {"tested_on": "LPS-induced phosphorylation of ERK1/2 and p38 MAPK", "experiment": "Western blot of MAPK pathway in LPS-stimulated RAW 264.7 cells", "assay_type": "cell-based, murine", "experimental": "As previously described, RAW264.7 cells were cultured and treated with LPS and synthetic peptides. After 18 h, cells were washed with PBS and lysed by incubating with RIPA lysis buffer cocktail (RIPA Lysis buffer, PMSF (1 mM), Protease inhibitor (1 μg/mL), phosphatase inhibitor (1 mM)) at […] for 30 minutes. Post incubation, cell lysate was collected by scraping cells and centrifuged at 12000 rpm for 15 min.\nThe protein concentration was determined using the Bicinchoninic acid kit method with bovine serum albumin as the standard (provided in the kit), according to the manufacturer's instructions. Protein bands were electrophoretically transferred to a polyvinylidene difluoride (PVDF) membrane via semi-dry transfer blotting, Membranes were blocked with 5% BSA in PBST (1% Tween 20 in PBS) at 20-24° C. for 1 h, then incubated with primary antibodies against IL-10, TLR 4, VEGF, P38 p-p38, ERK and p-ERK, the dilutions are listed in table 3., at 4° C. overnight. GAPDH was used as a protein-loading control. The membrane was washed 3 times (10 min. each) with Tris-buffered saline/Tween 20 (TBST) and then treated with horseradish peroxidase (HRP)-conjugated secondary antibody (1:10000) for 1 h. The membrane was washed again with TBST. The membrane-binding antibodies were visualized later with the ECL detection reagent and images were acquired in a Fusion SL Imaging System. Band density was analyzed by densitometry using Image J software."}, "[2]": {"tested_on": "LPS-stimulated RAW 264.7 cells", "experiment": "RT-qPCR of cytokine mRNA in LPS-stimulated RAW 264.7 cells", "assay_type": "cell-based, murine", "conditions": "vs LPS control", "experimental": "Total cellular RNA was isolated using the RNA isoplus reagent (Takara Bioscience, India) following the manufacturer's instructions. RNA was quantified spectrophotometrically by absorption measurements at 260 and 280 nm using the nano drop system.\nAs per table 8, RNA and the reaction mixture were mixed in PCR a tube and incubated in a thermal cycler for 5 min at 65° C. in and then cooled immediately on ice. Further, in the same tube, the step 2 reaction mixture was added and further incubated in the thermal cycler as mentioned below.\nPrimers were designed using the Primer3 online tool. GAPDH was used as a normalizing control. The sequence of primers used is provided in below table 10. Real-Time PCR was performed according to the manufacturer's protocol using Takara biosystem's real-time PCR mix (Takara, Bio-India) with ROX as a passive reference dye using applied Biosystem's step-one Real-Time PCR system. The following PCR program was used for all real-time PCR-based experiments: initial denaturation at 95° C. for 2 minutes, followed by 40 cycles of denaturation at 95° C. for 15 seconds, annealing at 60° C. for 30 seconds, extension at 60° C. for 15 seconds.\nFor quantification of gene expression, CT values of each gene were normalized to GAPDH and calibrated to the appropriate control sample using the SYBR Green-based comparative CT method (2-ΔΔCt). Fold change was calculated using the formula 2-ΔΔct."}, "[3]": {"tested_on": "LPS-stimulated peritoneal macrophages", "experiment": "Cytokine ELISA in LPS-stimulated peritoneal macrophages", "assay_type": "cell-based, BALB/c mice", "experimental": "BALB/c mice (6-8 wk old) of either sex was injected IP with 1 ml of 4% sterile thioglycollate broth in PBS. After 4 d, mice were sacrificed, and peritoneal macrophages were harvested as described below [Meurer S K, 2016] and this model is well known as “Thioglycollate-induced peritonitis model”. […] After 4 days, mice were then euthanized, and the peritoneal macrophages were harvested by lavaging the peritoneal cavity with 5-6 mL of harvest medium (EDTA 5 mM+PBS). Isolated peritoneal exudate cells were washed twice with RPMI and centrifuged at 1000 rpm/400×g for 8-10 min at 4° C. […] The plates were then washed with warm PBS to remove non-adherent cells. […] After 24 h, culture supernatants were collected for estimation of cytokines by ELIZA and RTqPCR, whereas cells were harvested for western blotting. The procedure of ELISA, RTqPCR and other conditions are same as in the section. [Min Jee Kim et al., 2014]."}},
  "note": "Ends that are not written are not given here.",
  "data": [
    {"substance": "FAKKFAK [IS 111, Phe-Ala-Lys-Lys-Phe-Ala-Lys]", "values": [
      {"measurement": "IL-10 levels (western blot)", "setting": "[1]; IS111 treated cells", "result": "increased"},
      {"measurement": "Phosphorylation of ERK (p-ERK1/2)", "setting": "[1]; LPS-induced, western blot", "result": "significantly inhibited"},
      {"measurement": "LPS-induced increase of p38 phosphorylation", "setting": "[1]; concentration-dependent, western blot", "result": "markedly prevented"},
      {"measurement": "CCL2 mRNA expression", "setting": "[2]; dose dependent", "result": "reduction"},
      {"measurement": "IL-1β mRNA expression", "setting": "[2]", "result": "dose dependently reduced"},
      {"measurement": "IL-6 mRNA expression", "setting": "[2]", "result": "significant reduction"},
      {"measurement": "TNF-α mRNA expression", "setting": "[2]", "result": "significant reduction"},
      {"measurement": "Concentration of maximum inhibition for all cytokines", "setting": "[3]; IL-1β, IL-6, IL-12p70, TNF-α, text prints RAW 264.7 cells", "result": 100, "unit": "µM"},
      {"measurement": "IL-10 levels", "setting": "[3]; summary table", "result": "TNF-α and ↑ IL-10 levels."}
    ]}
  ]
}
